The structures appear in SMILES notation.

One assay has as its system Apolipoprotein B Secretion from HepG2 Cells. As to the kind of experiment: Inhibition of Apolipoprotein B secretion from HepG2 cells (ELISA). Type of assay: cell-based, human. Conditions: HepG2 cells, 22-24 hours incubation, ApoB ELISA; Low/High IC50 columns give the 95% confidence interval. How it is done:
Inhibition of Apolipoprotein B Secretion from HepG2 Cells
To assess the inhibitory effect of the compounds of the invention on ApoB production, an endogenously ApoB producing cell line, HEPG2, was implemented in an in vitro ELISA assay. HEPG2 cells are plated at 25,000 per well (96-well plates) in media consisting of DMEM Low Glucose, 1% NEAA (non-essential amino acids), 10% FBS (heat inactivated), 1% L-Glutamine, and 1% Antimycotic-Antibiotic and incubated for 16-18 hours at 37° C. and 5% CO2. After the 16-18 hour incubation, a 12 point half-log serial of the inhibitor (1000 nM-0.003 nM) is prepared, and 1.5 ul of the serial dilution is added to HEPG2 cells, which have had their media decanted and replaced with 148 ul of fresh media, and the cells are incubated for 22-24 hours at 37° C. and 5% CO2. Two and a half hours before the 22-24 hour incubation period is completed, Nunc Maxisorp plates are coated with 100 ul of primary (coating) antibody (goat anti-apoB), diluting to a ratio of 1:1000 in 1% Carbonate-Bicarbonate Coating Buffer and incubated for at least 2 hours at room temperature before the primary antibody is decanted and the wells of the microplate are washed with 200 ul of washing buffer (1% PBS, 0.05% Tween20). Next, 200 ul of blocking buffer (1% PBS, 1:500 Western Block, 5 mg/ml BSA) is added to the wells of the microplate, and incubated for at least 30 mins. Following the 22-24 hours incubation period, cell plates are removed from the incubator, 20 ul of supernatant from each well is aspirated, added to a corresponding well in 96 well plate containing 140 ul of diluent (1:2-Blocking Buffer: Washing Buffer), and mixed. Then, 120 ul is aspirated from the dilutent-supernatant plate, added to the blocked Nunc Maxisorp 96 well plate, and placed at room temperature on a shaker to mix for at least 2 hours. The secondary (capture) antibody (mouse anti-human apoB) is prepared at a ratio of 1:4000, and the detection antibody (goat anti-mouse HRP conjugated antibody) at a ratio of 1:10,000. For each antibody, 100 ul is added to each well of the microplate and the microplate is incubated at room temperature for 2 hours, washing the microplates between each antibody addition. Colorimetric development is achieved by adding 50 ul of TMB reagent to each well, incubating for 5 mins at room temperature, then adding 50 ul of 2M Sulfuric Acid to each well. Absorbance at 450 nm is monitored in an Envision plate reader to measure the amount of ApoB formed.
Results reported as average IC50, low and high IC50 range (95% confidence interval).
In general terms: An ELISA detects its analyte on a solid surface through an enzyme-linked reagent.
In general, IC50 refers to the concentration that inhibits the measured activity by half. Read a high IC50 as weaker potency. As to `CCOC(=O)C1(COC(=O)Cc2ccc(NC(=O)c3ccccc3-c3ccc(C(F)(F)F)cc3)c(C(=O)N(C)C)c2)NC(=O)c2ccccc21` (stereo not shown) [Example 24], the 50% inhibitory concentration (IC50) amounted to 28 nM.
`CCOC(=O)C1(COC(=O)Cc2ccc(NC(=O)c3ccccc3-c3ccc(C(F)(F)F)cc3)c(C(=O)N(C)C)c2)NC(=O)c2ccccc21` (stereo not shown) [Example 25] showed an IC50 of 297 nM.
For `CCOC(=O)C1(COC(=O)Cc2ccc(NC(=O)c3ccccc3-c3ccc(C(F)(F)F)cc3)c(C(=O)N(C)C)c2)OC(=O)c2ccccc21` (stereo not shown) [Example 31], 10.1 nM corresponded to half-maximal inhibition (IC50).
`CCOC(=O)C1(COC(=O)Cc2ccc(NC(=O)c3ccccc3-c3ccc(C(F)(F)F)cc3)c(C(=O)N(C)C)c2)OC(=O)c2ccccc21` (stereo not shown) [Example 32] gave an IC50 of 45.5 nM.
`COC(=O)C1(COC(=O)Cc2ccc(NC(=O)c3ccccc3-c3ccc(C(F)(F)F)cc3)c(C(=O)N(C)C)c2)CCc2ccccc21` (stereo not shown) [Example 34]: the half-maximal inhibitory concentration (IC50) amounted to 5.54 nM.
On the same count and under the same terms, to `CCOC(=O)C1(COC(=O)Cc2ccc(NC(=O)c3ccccc3-c3ccc(C(F)(F)F)cc3)c(C(=O)N(C)C)c2)CCc2ccccc21` (stereo not shown) [Example 35] belongs 0.46 nM.
Still for that read-out and setting: to `CCOC(=O)C1(COC(=O)Cc2ccc(NC(=O)c3ccccc3-c3ccc(C(F)(F)F)cc3)c(C(=O)N(C)C)c2)CCc2ccccc21` (stereo not shown) [Example 36] belongs 4.6 nM.
On the same count and under the same terms, the same measure for `CCOC(=O)C1(COC(=O)Cc2ccc(NC(=O)c3ccccc3-c3ccc(C(F)(F)F)cc3)c(C(=O)N(C)C)c2)CCc2cccnc21` (stereo not shown) [Example 38]: 19.9 nM; for `CCOC(=O)C1(COC(=O)Cc2ccc(NC(=O)c3ccccc3-c3ccc(C(F)(F)F)cc3)c(C(=O)N(C)C)c2)CCc2cccnc21` (stereo not shown) [Example 39]: 2.34 nM.
Regarding `CCOC(=O)C1(COC(=O)Cc2ccc(NC(=O)c3cccc(C)c3-c3ccc(C(F)(F)F)cc3)c(C(=O)N(C)C)c2)c2ncccc2C(=O)N1CC` (stereo not shown) [Example 47, Ethyl 7-({2-[3-(Dimethylcarbamoyl)-4-({[6-methyl-4′-(trifluoromethyl)biphenyl-2-yl]carbonyl}amino)phenyl]acetoxy}methyl)-6-ethyl-5-oxo-6,7-dihydro-5H-pyrrolo[3,4-b]pyridine-7-carboxylate], 7.56 nM corresponded to half-maximal inhibition (IC50).
On the same count and under the same terms, the same measure for `CCOC(=O)C1(COC(=O)Cc2ccc(NC(=O)c3cccc(C)c3-c3ccc(C(F)(F)F)cc3)c(C(=O)N(C)C)c2)c2ncccc2C(=O)N1CC` (stereo not shown) [Example 48, Ethyl 7-({2-[3-(Dimethylcarbamoyl)-4-({[6-methyl-4′-(trifluoromethyl)biphenyl-2-yl]carbonyl}amino)phenyl]acetoxy}methyl)-6-ethyl-5-oxo-6,7-dihydro-5H-pyrrolo[3,4-b]pyridine-7-carboxylate]: 0.203 nM.

Still in this assay, the particulars now being: Homo sapiens, HepG2, HepG2 cells, 22-24 hours incubation, ApoB ELISA; Low/High IC50 columns give the 95% confidence interval.
`COC(=O)C1(COC(=O)Cc2ccc(NC(=O)c3ccccc3-c3ccc(C(F)(F)F)cc3)c(C(=O)N(C)C)c2)CCc2ccccc21` (stereo not shown) [Example 33]: the IC50 amounted to 6.5 nM.
The same measure, in the same setting: the same measure for `CCOC(=O)C1(COC(=O)Cc2ccc(NC(=O)c3ccccc3-c3ccc(C(F)(F)F)cc3)c(C)c2)OC(=O)c2ccccc21` (stereo not shown) [Example 40]: 159 nM.
Still for that read-out and setting: to `CCOC(=O)C1(COC(=O)Cc2ccc(NC(=O)c3cccc(C)c3-c3ccc(OC(C)C)cc3)c(C(=O)N(C)C)c2)c2ccccc2C(=O)N1C` (stereo not shown) [Example 51, ethyl 1-({2-[3-(dimethylcarbamoyl)-4-{[(4′-isopropoxy-6-methylbiphenyl-2-yl)carbonyl]amino}phenyl]acetoxy}methyl)-2-methyl-3-oxoisoindoline-1-carboxylate] belongs 0.159 nM; to `CCOC(=O)C1(COC(=O)Cc2ccc(NC(=O)c3cccc(C)c3-c3ccc(C(C)C)cc3)c(C(=O)N(C)C)c2)c2ccccc2C(=O)N1C` (stereo not shown) [Example 53], 0.242 nM; to `CCOC(=O)C1(COC(=O)Cc2ccc(NC(=O)c3ccccc3-c3ccc(OC(C)C)cc3)c(C(=O)N(C)C)c2)c2ccccc2C(=O)N1C` (stereo not shown) [Example 54, ethyl 1-({2-[3-(dimethylcarbamoyl)-4-{[(4′-isopropoxybiphenyl-2-yl)carbonyl]amino}phenyl]acetoxy}methyl)-2-methyl-3-oxoisoindoline-1-carboxylate], 0.124 nM.

The values above are taken from patent publication US20130072519A1, “2-PHENYL BENZOYLAMIDES” (priority 2010, published 2013).
